Where a name gives a salt, the structure may show the parent alone.
These compounds were tested against T1, human αVβ6 (Homo sapiens, UniProt P06756+P18564) (assay: human αVβ6 HTRF binding assay). Details: recombinant human αVβ6 integrin, FITC-conjugated fibronectin.
T1 construct: purchased R & D systems 3817-AV
Experimental: All binding assays used the HTRF (homogeneous time resolved fluorescence) technology from Cisbio International, therefore all assays are described as HTRF binding assays. The assay results for the Examples are listed above together with the characterization data. The HTRF binding assays are established for the following integrins: human αVβ6, human αVβ1, human αVβ3, human αVβ5, and human αVβ8. All assays used the following assay buffer: 20 mM Tris, pH 7.4, 1 mM MgCl2, 1 mM MnCl2, 0.01% Tween 20, and 0.01% BSA. Alternatively, a SPA-based assay was used for evaluation of receptor binding.
The following describes the components and a representative procedure for the human αVβ6 HTRF binding assay: Recombinant human αVβ6 Integrin (R & D systems, 3817-AV) was biotinylated. Biotinylated human αVβ6 Integrin was added to assay vessel at a final concentration of 1.25 nM. FITC-conjugated fibronectin (Cytoskeleton, FNR02) was then added at the final concentration of 5 nM. The mixture was centrifuged at 600 rpm for three minutes using Thermo Fisher Heraeus Multifuge X3 centrifuge and then incubated at room temperature for an hour. Streptavidin Terbium (Cisbio international 610STLB) was then added at the final concentration of 0.625 nM. The resulting mixture was centrifuged at 600 rpm for three minutes using Thermo Fisher Heraeus Multifuge X3 centrifuge and then incubated at room temperature overnight in dark before reading HTRF signals. […]

T1 sequence (P06756 31-992 limits assumed): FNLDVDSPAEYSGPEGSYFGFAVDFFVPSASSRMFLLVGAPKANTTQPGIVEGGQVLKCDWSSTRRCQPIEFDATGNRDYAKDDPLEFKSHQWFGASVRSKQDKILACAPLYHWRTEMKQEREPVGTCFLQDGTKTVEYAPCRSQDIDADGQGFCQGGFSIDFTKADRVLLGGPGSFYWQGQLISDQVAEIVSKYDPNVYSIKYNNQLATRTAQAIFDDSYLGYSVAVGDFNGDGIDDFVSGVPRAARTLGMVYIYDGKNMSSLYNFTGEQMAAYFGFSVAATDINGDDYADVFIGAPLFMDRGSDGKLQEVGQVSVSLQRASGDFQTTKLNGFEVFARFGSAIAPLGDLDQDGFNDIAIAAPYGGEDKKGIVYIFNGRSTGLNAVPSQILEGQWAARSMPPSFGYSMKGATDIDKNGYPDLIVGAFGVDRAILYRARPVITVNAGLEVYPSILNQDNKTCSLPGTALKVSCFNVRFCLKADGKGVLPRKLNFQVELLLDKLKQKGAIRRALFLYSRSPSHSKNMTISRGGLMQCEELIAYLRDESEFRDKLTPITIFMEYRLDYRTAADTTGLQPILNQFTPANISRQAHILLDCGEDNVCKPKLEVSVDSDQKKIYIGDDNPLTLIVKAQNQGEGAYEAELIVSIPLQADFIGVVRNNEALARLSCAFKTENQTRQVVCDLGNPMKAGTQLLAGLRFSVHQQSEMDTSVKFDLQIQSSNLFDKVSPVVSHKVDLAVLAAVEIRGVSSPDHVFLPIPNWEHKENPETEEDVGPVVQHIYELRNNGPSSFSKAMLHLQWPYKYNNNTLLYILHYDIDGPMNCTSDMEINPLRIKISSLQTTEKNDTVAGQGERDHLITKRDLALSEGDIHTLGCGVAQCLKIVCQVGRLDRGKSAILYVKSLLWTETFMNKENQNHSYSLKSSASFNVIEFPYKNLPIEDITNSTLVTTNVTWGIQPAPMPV
T1 sequence (P18564 22-707 limits assumed): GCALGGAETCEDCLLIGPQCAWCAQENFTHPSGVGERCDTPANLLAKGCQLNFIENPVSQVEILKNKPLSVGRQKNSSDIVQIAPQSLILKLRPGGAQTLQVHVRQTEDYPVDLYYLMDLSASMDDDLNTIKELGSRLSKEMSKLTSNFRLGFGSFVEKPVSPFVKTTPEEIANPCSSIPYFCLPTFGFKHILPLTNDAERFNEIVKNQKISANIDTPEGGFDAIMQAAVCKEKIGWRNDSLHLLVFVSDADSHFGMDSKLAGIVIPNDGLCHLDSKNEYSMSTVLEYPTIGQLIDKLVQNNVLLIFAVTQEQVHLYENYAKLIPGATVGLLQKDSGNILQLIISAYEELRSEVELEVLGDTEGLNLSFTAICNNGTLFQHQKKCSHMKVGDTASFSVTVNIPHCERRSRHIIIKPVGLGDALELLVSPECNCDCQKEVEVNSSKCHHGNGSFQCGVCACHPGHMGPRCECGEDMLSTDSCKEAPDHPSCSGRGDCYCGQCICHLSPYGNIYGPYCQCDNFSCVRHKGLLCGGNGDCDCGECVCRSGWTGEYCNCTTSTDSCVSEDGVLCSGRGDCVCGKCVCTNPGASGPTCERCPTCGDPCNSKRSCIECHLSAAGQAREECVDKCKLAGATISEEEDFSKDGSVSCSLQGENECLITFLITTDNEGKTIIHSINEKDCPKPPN

Row | Structure (SMILES) | IC50
1 | COc1ccc(C(CC(=O)O)n2ncc3c(CCCc4ccc5c(n4)NCCC5)cccc32)cn1 (centres unmarked) [Example 1, 3-(6-Methoxypyridin-3-yl)-3-(4-(3-(5,6,7,8-tetrahydro-1,8-naphthyridin-2-yl)propyl)-1H-indazol-1-yl)propanoic acid] | 1.6 µM
2 | O=C(N[C@@H](Cn1ncc2cc(CCCc3ccc4c(n3)NCCC4)ccc21)C(=O)O)OCc1ccccc1 [Example 36, (S)-2-(((Benzyloxy)carbonyl)amino)-3-(5-(3-(5,6,7,8-tetrahydro-1,8-naphthyridin-2-yl)propyl)-1H-indazol-1-yl)propanoic acid] | 0.077 µM
3 | O=C(O)CC(c1ccc2ncsc2c1)n1ncc2cc(OCCc3ccc4c(n3)NCCC4)ccc21 (centres unmarked) [Example 110, 3-(Benzo[d]thiazol-6-yl)-3-(5-(2-(5,6,7,8-tetrahydro-1,8-naphthyridin-2-yl)ethoxy)-1H-indazol-1-yl)propanoic acid, TFA] | 0.019 µM
4 | CN(C)C(=O)c1cccc(C(CC(=O)O)n2ncc3c(OCCc4ccc5c(n4)NCCC5)cccc32)c1 (centres unmarked) [Example 29, 3-(3-(Dimethylcarbamoyl)phenyl)-3-(4-(2-(5,6,7,8-tetrahydro-1,8-naphthyridin-2-yl)ethoxy)-1H-indazol-1-yl)propanoic acid] | 1.5 µM
5 | COc1ccc([C@H](CC(=O)O)n2cc3ccc(CCc4ccc5c(n4)NCCC5)cc3n2)cn1 [Example 7, (S)-3-(6-Methoxypyridin-3-yl)-3-(6-(2-(5,6,7,8-tetrahydro-1,8-naphthyridin-2-yl)ethyl)-2H-indazol-2-yl)propanoic acid] | 0.0066 µM
6 | COc1ccc(C(CC(=O)O)n2ncc3cc(OCCc4ccc5c(n4)NCCC5)ccc32)nn1 (centres unmarked) [Example 114, 3-(6-Methoxypyridazin-3-yl)-3-(5-(2-(5,6,7,8-tetrahydro-1,8-naphthyridin-2-yl)ethoxy)-1H-indazol-1-yl)propanoic acid, TFA] | 0.0026 µM
7 | COc1ncc(C(CC(=O)O)n2ncc3cc(OCCc4ccc5c(n4)NCCC5)ccc32)cc1F (centres unmarked) [Example 86, 3-(5-Fluoro-6-methoxypyridin-3-yl)-3-(5-(2-(5,6,7,8-tetrahydro-1,8-naphthyridin-2-yl)ethoxy)-1H-indazol-1-yl)propanoic acid, TFA] | 0.0078 µM
8 | O=C(O)CC(c1cnc2ccccc2n1)n1ncc2c(CCCc3ccc4c(n3)NCCC4)cccc21 (centres unmarked) [Example 19, 3-(Quinoxalin-2-yl)-3-(4-(3-(5,6,7,8-tetrahydro-1,8-naphthyridin-2-yl)propyl)-1H-indazol-1-yl)propanoic acid] | 0.22 µM
9 | O=C(O)CC(c1cncc(N2CCOCC2)c1)n1ncc2cc(OCCc3ccc4c(n3)NCCC4)ccc21 (centres unmarked) [Example 124, 3-(5-Morpholinopyridin-3-yl)-3-(5-(2-(5,6,7,8-tetrahydro-1,8-naphthyridin-2-yl)ethoxy)-1H-indazol-1-yl)propanoic acid, 3 TFA] | 0.0019 µM
10 | O=C(O)C[C@H](c1cncc(CO)c1)n1ncc2cc(OCCc3ccc4c(n3)NCCC4)ccc21 [Example 99, (R)-3-(5-(Hydroxymethyl)pyridin-3-yl)-3-(5-(2-(5,6,7,8-tetrahydro-1,8-naphthyridin-2-yl)ethoxy)-1H-indazol-1-yl)propanoic acid] | 0.34 µM
11 | COc1ccc([C@H](CC(=O)O)n2cc3ccc(CCc4cc5c(nc4C)NCCC5)cc3n2)cn1 [Example 10, (S)-3-(6-Methoxypyridin-3-yl)-3-(6-(2-(2-methyl-5,6,7,8-tetrahydro-1,8-naphthyridin-3-yl)ethyl)-2H-indazol-2-yl)propanoic acid] | 0.16 µM
12 | O=C(O)CC(c1cncc(C2CC2)c1)n1ncc2cc(OCCc3ccc4c(n3)NCCC4)ccc21 (centres unmarked) [Example 155, 3-(5-cyclopropylpyridin-3-yl)-3-(5-(2-(5,6,7,8-tetrahydro-1,8-naphthyridin-2-yl)ethoxy)-1H-indazol-1-yl)propanoic acid] | 0.0053 µM
13 | O=C(O)CC(c1cc(Cl)cc(Cl)c1)n1ncc2c(OCCc3ccc4c(n3)NCCC4)cccc21 (centres unmarked) [Example 32, 3-(3,5-Dichlorophenyl)-3-(4-(2-(5,6,7,8-tetrahydro-1,8-naphthyridin-2-yl)ethoxy)-1H-indazol-1-yl)propanoic acid] | 1.3 µM
14 | COc1ccc([C@@H](CC(=O)O)n2ncc3cc(OCCc4ccc5c(n4)NCCC5)ccc32)cn1 [Example 40, (R)-3-(6-Methoxypyridin-3-yl)-3-(5-(2-(5,6,7,8-tetrahydro-1,8-naphthyridin-2-yl)ethoxy)-1H-indazol-1-yl)propanoic acid] | 0.21 µM
15 | CN(C)CCNC(=O)c1cncc(C(CC(=O)O)n2ncc3cc(OCCc4ccc5c(n4)NCCC5)ccc32)c1 (centres unmarked) [Example 158, 3-(5-((2-(dimethylamino)ethyl)carbamoyl)pyridin-3-yl)-3-(5-(2-(5,6,7,8-tetrahydro-1,8-naphthyridin-2-yl)ethoxy)-1H-indazol-1-yl)propanoic acid] | 0.013 µM
16 | O=C(O)CC(c1cccnc1)n1ncc2cc(OCCc3ccc4c(n3)NCCC4)ccc21 (centres unmarked) [Example 50, 3-(Pyridin-3-yl)-3-(5-(2-(5,6,7,8-tetrahydro-1,8-naphthyridin-2-yl)ethoxy)-1H-indazol-1-yl)propanoic acid, TFA] | 0.08 µM
17 | O=C(O)CC(Cc1ccc(OCc2ccccc2)cc1)n1ncc2cc(OCCc3ccc4c(n3)NCCC4)ccc21 (centres unmarked) [Example 69, 4-(4-(Benzyloxy)phenyl)-3-(5-(2-(5,6,7,8-tetrahydro-1,8-naphthyridin-2-yl)ethoxy)-1H-indazol-1-yl)butanoic acid, TFA] | 0.4 µM
18 | O=C(NC(Cn1ncc2cc(OCCc3ccc4c(n3)NCCC4)ccc21)C(=O)O)OCc1ccccc1 (centres unmarked) [Example 14, 2-(((Benzyloxy)carbonyl)amino)-3-(5-(2-(5,6,7,8-tetrahydro-1,8-naphthyridin-2-yl)ethoxy)-1H-indazol-1-yl)propanoic acid] | 0.3 µM
19 | COc1ccc([C@@H](CC(=O)O)n2ncc3cc(OCCc4ccc5c(n4)NCCO5)ccc32)cn1 [Example 181, (R)-3-(5-(2-(3,4-dihydro-2H-pyrido[3,2-b][1,4]oxazin-6-yl)ethoxy)-1H-indazol-1-yl)-3-(6-methoxypyridin-3-yl)propanoic acid] | 5 µM
20 | CS(=O)(=O)NCc1cncc(C(CC(=O)O)n2ncc3cc(OCCc4ccc5c(n4)NCCC5)ccc32)c1 (centres unmarked) [Example 170] | 0.018 µM
21 | O=C(O)CC(c1cnc2c(c1)CCCN2)n1ncc2cc(OCCc3ccc4c(n3)NCCC4)ccc21 (centres unmarked) [Example 172, 3-(5-(2-(5,6,7,8-Tetrahydro-1,8-naphthyridin-2-yl)ethoxy)-1H-indazol-1-yl)-3-(5,6,7,8-tetrahydro-1,8-naphthyridin-3-yl)propanoic acid] | 0.012 µM
22 | CC(C)(C)OC(=O)N1CCC(C(CC(=O)O)n2ncc3cc(OCCc4ccc5c(n4)NCCC5)ccc32)CC1 (centres unmarked) [Example 74, 3-(1-(tert-Butoxycarbonyl)piperidin-4-yl)-3-(5-(2-(5,6,7,8-tetrahydro-1,8-naphthyridin-2-yl)ethoxy)-1H-indazol-1-yl)propanoic acid] | 0.26 µM
23 | CN(C)C(=O)c1cccc(C(CC(=O)O)n2ncc3cc(CCc4ccc5c(n4)NCCC5)ccc32)c1 (centres unmarked) [Example 24, 3-(3-(Dimethylcarbamoyl)phenyl)-3-(5-(2-(5,6,7,8-tetrahydro-1,8-naphthyridin-2-yl)ethyl)-1H-indazol-1-yl)propanoic acid] | 0.13 µM
24 | CS(=O)(=O)c1cncc(C(CC(=O)O)n2ncc3cc(OCCc4ccc5c(n4)NCCC5)ccc32)c1 (centres unmarked) [Example 125, 3-(5-(Methylsulfonyl)pyridin-3-yl)-3-(5-(2-(5,6,7,8-tetrahydro-1,8-naphthyridin-2-yl)ethoxy)-1H-indazol-1-yl)propanoic acid, 2 TFA] | 0.0047 µM
25 | NCc1cncc(C(CC(=O)O)n2ncc3cc(OCCc4ccc5c(n4)NCCC5)ccc32)c1 (centres unmarked) [Example 131, 3-(5-(Aminomethyl)pyridin-3-yl)-3-(5-(2-(5,6,7,8-tetrahydro-1,8-naphthyridin-2-yl)ethoxy)-1H-indazol-1-yl)propanoic acid] | 0.03 µM
26 | O=C(O)CC(Cc1ccc(F)cc1)n1ncc2cc(OCCc3ccc4c(n3)NCCC4)ccc21 (centres unmarked) [Example 78, 4-(4-Fluorophenyl)-3-(5-(2-(5,6,7,8-tetrahydro-1,8-naphthyridin-2-yl)ethoxy)-1H-indazol-1-yl)butanoic acid, TFA] | 0.804 µM
27 | CN(C)C(=O)c1cccc([C@@H](CC(=O)O)n2ncc3cc(OCCc4ccc5c(n4)NCCC5)ccc32)c1 [Example 37, (R)-3-(3-(Dimethylcarbamoyl)phenyl)-3-(5-(2-(5,6,7,8-tetrahydro-1,8-naphthyridin-2-yl)ethoxy)-1H-indazol-1-yl)propanoic acid] | 1.1 µM
28 | O=C(O)CC(c1cc(Cl)cc(Cl)c1)n1ncc2cc(OCCc3ccc4c(n3)NCCC4)ccc21 (centres unmarked) [Example 43, 3-(3,5-Dichlorophenyl)-3-(5-(2-(5,6,7,8-tetrahydro-1,8-naphthyridin-2-yl)ethoxy)-1H-indazol-1-yl)propanoic acid, TFA] | 0.0032 µM
29 | CN(C)Cc1cccc(C(CC(=O)O)n2ncc3cc(OCCc4ccc5c(n4)NCCC5)ccc32)c1 (centres unmarked) [Example 60, 3-(3-((Dimethylamino)methyl)phenyl)-3-(5-(2-(5,6,7,8-tetrahydro-1,8-naphthyridin-2-yl)ethoxy)-1H-indazol-1-yl)propanoic acid, TFA] | 0.0051 µM

Source: patent publication US10745384B2, “Indazole derivatives as αv integrin antagonists” (BRISTOL-MYERS SQUIBB COMPANY, priority 2016, dated 2020)
